Test results: the CheMixHub viscosity set
± gives the uncertainty stated by the source.

Test: xn = mol fraction of the nth substance listed
Details: 101.33 kPa

CCOCCO + CS(C)=O
viscosity [mPa·s]
Details	298.15 K	303.15 K	308.15 K	313.15 K	318.15 K
x1 = 0.0436	2 ± 0.08	1.8 ± 0.07	1.66 ± 0.07	1.52 ± 0.06	1.38 ± 0.06
x1 = 0.0879	2 ± 0.08	1.8 ± 0.07	1.66 ± 0.07	1.53 ± 0.06	1.38 ± 0.06
x1 = 0.1327	2 ± 0.08	1.81 ± 0.07	1.67 ± 0.07	1.53 ± 0.06	1.38 ± 0.06
x1 = 0.1781	2.01 ± 0.08	1.81 ± 0.07	1.67 ± 0.07	1.53 ± 0.06	1.38 ± 0.06
x1 = 0.2242	2.01 ± 0.08	1.82 ± 0.07	1.68 ± 0.07	1.54 ± 0.06	1.38 ± 0.06
x1 = 0.2709	2.02 ± 0.08	1.82 ± 0.07	1.68 ± 0.07	1.54 ± 0.06	1.38 ± 0.06
x1 = 0.3183	2.02 ± 0.08	1.82 ± 0.07	1.68 ± 0.07	1.54 ± 0.06	1.38 ± 0.06
x1 = 0.3663	2.03 ± 0.08	1.83 ± 0.07	1.69 ± 0.07	1.54 ± 0.06	1.38 ± 0.06
x1 = 0.415	2.02 ± 0.08	1.83 ± 0.07	1.68 ± 0.07	1.54 ± 0.06	1.38 ± 0.06
x1 = 0.4644	2.02 ± 0.08	1.82 ± 0.07	1.68 ± 0.07	1.54 ± 0.06	1.38 ± 0.06
x1 = 0.5145	2.02 ± 0.08	1.82 ± 0.07	1.68 ± 0.07	1.54 ± 0.06	1.37 ± 0.06
x1 = 0.5653	2.01 ± 0.08	1.81 ± 0.07	1.67 ± 0.07	1.53 ± 0.06	1.37 ± 0.06
x1 = 0.6169	2.01 ± 0.08	1.81 ± 0.07	1.67 ± 0.07	1.52 ± 0.06	1.36 ± 0.06
x1 = 0.6692	1.99 ± 0.08	1.79 ± 0.07	1.65 ± 0.07	1.51 ± 0.06	1.35 ± 0.06
x1 = 0.7223	1.98 ± 0.08	1.78 ± 0.07	1.64 ± 0.07	1.49 ± 0.06	1.33 ± 0.05
x1 = 0.7762	1.96 ± 0.08	1.75 ± 0.07	1.62 ± 0.07	1.48 ± 0.06	1.31 ± 0.05
x1 = 0.8309	1.94 ± 0.08	1.73 ± 0.07	1.59 ± 0.06	1.45 ± 0.06	1.29 ± 0.05
x1 = 0.8864	1.92 ± 0.08	1.71 ± 0.07	1.56 ± 0.06	1.43 ± 0.06	1.27 ± 0.05
x1 = 0.9428	1.88 ± 0.08	1.67 ± 0.07	1.53 ± 0.06	1.39 ± 0.06	1.24 ± 0.05
